Measurements as given in patent publication US20250075155A1, “Use of Vanillyl Ethers to Modify Flavor of Distilled Spirits” (Firmenich Incorporated, priority 2021, published 2025).

Experiment: Sensory testing of unaged grain neutral spirit with vs without VEE (qualitative, taste testers)
Protocol: (§1) Sensory testing was performed comparing two samples of unaged grain neutral spirit (20% alcohol by volume), where one sample contained no vanillyl ether compounds and the other sample contained 4-(ethoxy methyl)-2-methoxyphenol (vanillyl ethyl ether or VEE) at a concentration of 5 ppm. The taste testers were asked to describe the differences between the two samples on a qualitative basis.
as §1, with “4-(ethoxymethyl)-2-methoxyphenol” for “4-(ethoxy methyl)-2-methoxyphenol”, “25” for “5”

[1] = VEE 5 ppm in unaged grain neutral spirit (20% ABV), relative to control sample
[2] = VEE 25 ppm in unaged grain neutral spirit (20% ABV), relative to control sample

CCOCc1ccc(O)c(OC)c1 [VEE, 4-(ethoxymethyl)-2-methoxyphenol]
Bitterness [1]: All taste testers identified the test sample as having a less bitter | Overall Taste [1]: All taste testers identified the test sample as having a better overall | Smoothness/Balance/Roundness [1]: All taste testers identified the test sample as having greater | Smoothness/Balance/Roundness: taste characteristic of an aged spirit [1]: test sample as having a taste more characteristic of an aged spirit. | Sweetness [1]: sweeter taste. | Smell (VEE 5 ppm in unaged grain neutral spirit (20% alcohol by volume), relative to control sample without vanillyl ether): sample (containing VEE) as having a slight rum-like smell relative | Bitterness [2]: All taste testers identified the test sample as having a less bitter | Overall Taste [2]: All taste testers identified the test sample as having a better | Smoothness/Balance/Roundness [2]: All taste testers identified the test sample as having greater | Sweetness [2]: sweeter taste. | Tingling/Heat [2]: increased tingling/hot perception very similar to ethanol profile | Tingling/Heat: alcohol perception [2]: while significantly increasing the alcohol perception; taste like
